# System: 48-Hours PCA (passive cutaneous anaphylaxis)
# Test: Test Example 3: Anti-passive cutaneous anaphylaxis (PCA) activity in rats, 48-Hours PCA (Ic compounds)
# Format: in vivo, rat (Wistar strain male)
# Conditions: 30 mg/kg, P.O., 1 hour before the elicitation
# Procedure: (§1) Anti-passive cutaneous anaphylaxis (PCA) activity in rats (Materials and Method)
# (§2) Wistar strain male rats (6 weeks old) were purchased from Shizuoka Experimental Animal Agricultural Cooperative (Japan), habituated to a breeding environment for 1 week before using for the experiment.
# (§3) (2) Preparation of antiserum
# (§4) Preparation of antiserum was carried out according to the method described in J. Immunol. 106, 1002-1011 (1971).
# (§5) Thus, Ascaris suum extract was dinitrophenylated (DNP-As) and infused subcutaneously together with dead Bordetella pertussis at four sites on the foot-pad of the Wistar strain male rats. After 5 days, the rats were boostered with DNP-As (1 mg) at the dorsal muscle for additional sensitization. After 3 days, blood samples were collected and serum was separated which was used as anti DNP-As antiserum. The titer of the antiserum was measured by rats 48-hours PCA and found to be 1:200.
# Rats were sensitized with 35 times dilution of anti DNA-As antiserum administered at two sites in the pre-clipped right dorsal skin. After 48 hours, DNP-As (500 μg in 0.5% Evans blue-physiological saline (1 ml) was administered into caudal vein to elicit the reaction. Then, 30 minutes later, the animals were decapitated, the dorsal skin was peeled, two sensitized areas as well as one control area were cut off and analyzed for Evans blue exudation which was used as an indivative of the reaction according to the method disclosed in Microbiol. Immunol. 22, 89-101 (1978). Thus, cut skins were treated with […] incubated at 37° C. for 16 hours to dissolve the skin tissue. A mixed solution (9 ml) of 0.6 N-phosphoric acid-acetone (5: 13) was added and the mixture was centrifuged (300 r.p.m.) for 15 minutes. The supernatant was assayed for absorption at 620 nm and the exudation of Evans blue was determined. Test compounds (I) of the present invention were administered perorally as a suspension in 0.5% tragacanth 1 hour before the elicitation.
row,SMILES,Inhibition (%)
1,"Cc1ccc(-c2nc(C)c(C(=O)Nc3nnn[nH]3)s2)cc1 [Ic-5, 4-methyl-2-(4-methylphenyl)-N-(1H-tetrazole-5-yl)-5-thiazolecarboxamide]",49
2,"COc1ccc(-c2nc(C)c(C(=O)Nc3nnn[nH]3)s2)cc1 [Ic-6, 2-(4-Methoxyphenyl)-4-methyl-N-(1H-tetrazole-5-yl)-5-thiazolecarboxamide]",56
3,"Cc1ccc(-c2nc(C)c(NC(=O)c3nnn[nH]3)s2)cc1 [Ic-13, N-(4-methyl-2-(4-methylphenyl)-5-thiazolyl)-1H-tetrazole-5-carboxamide]",52
4,"COc1ccc(-c2nc(C)c(NC(=O)c3nnn[nH]3)s2)cc1 [Ic-14, N-(2-(4-Methoxyphenyl)-4-methyl-5-thiazolyl)-1H-tetrazole-5-carboxamide]",50

# Same assay, conditions: 50 mg/kg, P.O., 1 hour before the elicitation
row,SMILES,Inhibition (%)
1,"COc1ccc(/C=C/C(=O)Nc2ccccc2C(=O)O)cc1OC [Tranilast, reference compound]",0

# System: 48-Hours PCA (passive cutaneous anaphylaxis)
# Test: Test Example 2: Anti-passive cutaneous anaphylaxis (PCA) activity in rats, 48-Hours PCA (Ib compounds)
# Format: in vivo, rat (Wistar strain male)
# Conditions: Rattus norvegicus, po, 20 mg/kg, P.O., 1 hour before the elicitation
# Procedure: as §1, §2, §3, §4, §5
# (§6) Rats were sensitized with 35 times dilution of anti DNA-As antiserum administered at two sites in the pre-clipped right dorsal skin. After 48 hours, DNP-As (500 μg in 0.5% Evans blue-physiological saline (1 ml) was administered into caudal vein to elicit the reaction. Then, 30 minutes later, the animals were decapitated, the dorsal skin was peeled, two sensitized areas as well as one control area were cut off and analyzed for Evans blue exudation which was used as an indivative of the reaction according to the method disclosed in Microbiol. Immunol. 22, 89-101 (1978). Thus, cut skins were treated with 1N-KOH (1 ml) and incubated at 37° C. for 16 hours to dissolve the skin tissue. A mixed solution (9 ml) of 0.6N-phosphoric acid-acetone (5: 13) was added and the mixture was centrifuged (300 r.p.m.) for 15 minutes. The supernatant was assayed for absorption at 620 nm and the exudation of Evans blue was determined. Test compounds (I) of the present invention were administered perorally as a suspension in 0.5% tragacanth 1 hour before the elicitation.
row,SMILES,inhibition in vivo at 20 mg/kg [%]
1,"O=C(Nc1nc(-c2ccccc2)cs1)c1nnn[nH]1 [Ib-1, N-(4-phenyl-2-thiazolyl)-1H-tetrazole-5-carboxamide]",66
2,COc1ccc(-c2csc(NC(=O)c3nnn[nH]3)n2)cc1 [Ib-4],92
3,"Cc1ccc(-c2csc(NC(=O)c3nnn[nH]3)n2)cc1 [Ib-5, N-(4-(4-Methylphenyl)-2-thiazolyl)-1H-tetrazole-5-carboxamide]",89
4,"O=C(Nc1nc(-c2ccc(Cl)cc2)cs1)c1nnn[nH]1 [Ib-7, N-(4-(4-chlorophenyl)-2-thiazolyl)-1H-tetrazole-5-carboxamide]",70
5,"Cc1sc(NC(=O)c2nnn[nH]2)nc1-c1ccccc1 [Ib-12, N-(5-methyl-4-phenyl-2-thiazolyl)-1H-tetrazole-5-carboxamide]",51

# Same assay, conditions: Rattus norvegicus, po, 30 mg/kg, P.O., 1 hour before the elicitation
row,SMILES,inhibition in vivo at 30 mg/kg [%]
1,"Cc1ccc(-c2csc(C(=O)Nc3nnn[nH]3)n2)cc1 [Ib-13, 4-(4-Methylphenyl)-N-(1H-tetrazole-5-yl)-2-thiazolecarboxamide]",60
2,"COc1ccc(-c2csc(C(=O)Nc3nnn[nH]3)n2)cc1 [Ib-14, 4-(4-methoxyphenyl)-N (1H-tetrazole-5-yl)-2-thiazolecarboxamide]",50

# Same assay, conditions: Rattus norvegicus, po, 50 mg/kg, P.O., 1 hour before the elicitation
row,SMILES,inhibition in vivo at 50 mg/kg [%]
1,"COc1ccc(/C=C/C(=O)Nc2ccccc2C(=O)O)cc1OC [Tranilast, reference compound]",0

# System: 48-Hours PCA (passive cutaneous anaphylaxis)
# Test: Test Example 1: Anti-passive cutaneous anaphylaxis (PCA) activity in rats, 48-Hours PCA (Ia compounds)
# Format: in vivo, rat (Wistar strain male)
# Conditions: Rattus norvegicus, po, 15 mg/kg, perorally, 1 hour before the elicitation
# Procedure: as §1, §2, §3, §4, §5
# as §6, with “μg in 0.5 % Evans blue-physiological” for “μg in 0.5% Evans blue-physiological”
row,SMILES,inhibition in vivo at 15 mg/kg [%]
1,"Cc1nc(NC(=O)c2nnn[nH]2)cs1 [Ia-1, N-(2-Methyl-4-thiazolyl)-1H-tetrazole-5-carboxamide]",60
2,"Cc1ccccc1-c1nc(NC(=O)c2nnn[nH]2)cs1 [Ia-3, N-(2-(2-methylphenyl)-4-thiazolyl)-1H-tetrazole-5-carboxamide]",78
3,"Cc1cccc(-c2nc(NC(=O)c3nnn[nH]3)cs2)c1 [Ia-4, N-(2-(3-methylphenyl)-4-thiazolyl)-1H-tetrazole-5-carboxamide]",39
4,COc1ccc(-c2nc(NC(=O)c3nnn[nH]3)cs2)cc1 [Ia-8],80
5,"O=C(Nc1csc(-c2ccc(Cl)cc2)n1)c1nnn[nH]1 [Ia-15, N-(2-(4-chlorophenyl)-4-thiazolyl)-1H-tetrazole-5-carboxamide]",50
6,"CC(C)c1ccc(-c2nc(NC(=O)c3nnn[nH]3)cs2)cc1 [Ia-16, N-(2-(4-(1-methylethyl)phenyl)-4-thiazolyl) 1H-tetrazole-5-carboxamide]",46
7,"CC(C)(C)c1ccc(-c2nc(NC(=O)c3nnn[nH]3)cs2)cc1 [Ia-17, N-(2-(4-(1,1-dimethylethyl)phenyl)-4-thiazolyl)-1H-tetrazole-5-carboxamide]",47
8,"O=C(Nc1csc(-c2cccnc2)n1)c1nnn[nH]1 [Ia-23, N-(2-(3-Pyridyl)-4-thiazolyl)-1H-tetrazole-5-carboxamide]",40
9,"O=C(Nc1csc(-c2cccs2)n1)c1nnn[nH]1 [Ia-25, N-(2-(2-thienyl)-4-thiazolyl)-1H-tetrazole-5-carboxamide]",43
10,"O=C(Nc1csc(-c2ccc3ccccc3n2)n1)c1nnn[nH]1 [Ia-26, N-(2-(2-quinolyl)-4-thiazolyl)-1H-tetrazole-5-carboxamide]",42

# Same assay, conditions: Rattus norvegicus, po, 25 mg/kg, perorally, 1 hour before the elicitation
row,SMILES,inhibition in vivo at 25 mg/kg [%]
1,Cc1ccc(-c2nc(NC(=O)c3nnn[nH]3)cs2)cc1 [Ia-5],90
2,"Cc1ccc(-c2nc(NC(=O)c3nnn[nH]3)c(C)s2)cc1 [Ia-19, N-(2-(4-methylphenyl)-5-methyl-4-thiazolyl)-1H-tetrazole-5-carboxamide]",61

# Same assay, conditions: Rattus norvegicus, po, 50 mg/kg, 1 hour before the elicitation
row,SMILES,inhibition in vivo at 50 mg/kg [%]
1,"COc1ccc(/C=C/C(=O)Nc2ccccc2C(=O)O)cc1OC [Tranilast, reference compound]",0

# Source: patent US4946855A, “Carboxamide derivatives having tetrazole and thiazole rings and their use” (Sawai Pharmaceutical Co., Ltd., priority 1987, dated 1990)
